# Experimental data: publication PMC12377734 (Proceedings of the National Academy of Sciences of the …, 2025)
# Legend:
# Type in all cases: cell-based
# hPIEZO1 [1] = target: T1, hPIEZO1 (Homo sapiens, UniProt Q92508); assay: single-cell Fura-2 Ca2+ imaging; settings: activator; HEK-P1-KO cells, 1 mM Jedi1, pH 7.2, 1.3 mM Ca2+
# mPIEZO1 [2] = target: mPIEZO1 (Mus musculus, UniProt E2JF22, L329P); assay: FLIPR GCaMP6s Ca2+ assay
# hPIEZO1 [3] = target: hPIEZO1 (Homo sapiens, UniProt Q92508, L322P); assay: FLIPR GCaMP6s Ca2+ assay
# hPIEZO1 [4] = target: T1, hPIEZO1; assay: FLIPR GCaMP6s Ca2+ assay
# mPIEZO1 [5] = target: mPIEZO1 (Mus musculus, UniProt E2JF22); assay: FLIPR GCaMP6s Ca2+ assay
# Chain of mPIEZO1 (Mus musculus, UniProt E2JF22) (E2JF22 whole entry): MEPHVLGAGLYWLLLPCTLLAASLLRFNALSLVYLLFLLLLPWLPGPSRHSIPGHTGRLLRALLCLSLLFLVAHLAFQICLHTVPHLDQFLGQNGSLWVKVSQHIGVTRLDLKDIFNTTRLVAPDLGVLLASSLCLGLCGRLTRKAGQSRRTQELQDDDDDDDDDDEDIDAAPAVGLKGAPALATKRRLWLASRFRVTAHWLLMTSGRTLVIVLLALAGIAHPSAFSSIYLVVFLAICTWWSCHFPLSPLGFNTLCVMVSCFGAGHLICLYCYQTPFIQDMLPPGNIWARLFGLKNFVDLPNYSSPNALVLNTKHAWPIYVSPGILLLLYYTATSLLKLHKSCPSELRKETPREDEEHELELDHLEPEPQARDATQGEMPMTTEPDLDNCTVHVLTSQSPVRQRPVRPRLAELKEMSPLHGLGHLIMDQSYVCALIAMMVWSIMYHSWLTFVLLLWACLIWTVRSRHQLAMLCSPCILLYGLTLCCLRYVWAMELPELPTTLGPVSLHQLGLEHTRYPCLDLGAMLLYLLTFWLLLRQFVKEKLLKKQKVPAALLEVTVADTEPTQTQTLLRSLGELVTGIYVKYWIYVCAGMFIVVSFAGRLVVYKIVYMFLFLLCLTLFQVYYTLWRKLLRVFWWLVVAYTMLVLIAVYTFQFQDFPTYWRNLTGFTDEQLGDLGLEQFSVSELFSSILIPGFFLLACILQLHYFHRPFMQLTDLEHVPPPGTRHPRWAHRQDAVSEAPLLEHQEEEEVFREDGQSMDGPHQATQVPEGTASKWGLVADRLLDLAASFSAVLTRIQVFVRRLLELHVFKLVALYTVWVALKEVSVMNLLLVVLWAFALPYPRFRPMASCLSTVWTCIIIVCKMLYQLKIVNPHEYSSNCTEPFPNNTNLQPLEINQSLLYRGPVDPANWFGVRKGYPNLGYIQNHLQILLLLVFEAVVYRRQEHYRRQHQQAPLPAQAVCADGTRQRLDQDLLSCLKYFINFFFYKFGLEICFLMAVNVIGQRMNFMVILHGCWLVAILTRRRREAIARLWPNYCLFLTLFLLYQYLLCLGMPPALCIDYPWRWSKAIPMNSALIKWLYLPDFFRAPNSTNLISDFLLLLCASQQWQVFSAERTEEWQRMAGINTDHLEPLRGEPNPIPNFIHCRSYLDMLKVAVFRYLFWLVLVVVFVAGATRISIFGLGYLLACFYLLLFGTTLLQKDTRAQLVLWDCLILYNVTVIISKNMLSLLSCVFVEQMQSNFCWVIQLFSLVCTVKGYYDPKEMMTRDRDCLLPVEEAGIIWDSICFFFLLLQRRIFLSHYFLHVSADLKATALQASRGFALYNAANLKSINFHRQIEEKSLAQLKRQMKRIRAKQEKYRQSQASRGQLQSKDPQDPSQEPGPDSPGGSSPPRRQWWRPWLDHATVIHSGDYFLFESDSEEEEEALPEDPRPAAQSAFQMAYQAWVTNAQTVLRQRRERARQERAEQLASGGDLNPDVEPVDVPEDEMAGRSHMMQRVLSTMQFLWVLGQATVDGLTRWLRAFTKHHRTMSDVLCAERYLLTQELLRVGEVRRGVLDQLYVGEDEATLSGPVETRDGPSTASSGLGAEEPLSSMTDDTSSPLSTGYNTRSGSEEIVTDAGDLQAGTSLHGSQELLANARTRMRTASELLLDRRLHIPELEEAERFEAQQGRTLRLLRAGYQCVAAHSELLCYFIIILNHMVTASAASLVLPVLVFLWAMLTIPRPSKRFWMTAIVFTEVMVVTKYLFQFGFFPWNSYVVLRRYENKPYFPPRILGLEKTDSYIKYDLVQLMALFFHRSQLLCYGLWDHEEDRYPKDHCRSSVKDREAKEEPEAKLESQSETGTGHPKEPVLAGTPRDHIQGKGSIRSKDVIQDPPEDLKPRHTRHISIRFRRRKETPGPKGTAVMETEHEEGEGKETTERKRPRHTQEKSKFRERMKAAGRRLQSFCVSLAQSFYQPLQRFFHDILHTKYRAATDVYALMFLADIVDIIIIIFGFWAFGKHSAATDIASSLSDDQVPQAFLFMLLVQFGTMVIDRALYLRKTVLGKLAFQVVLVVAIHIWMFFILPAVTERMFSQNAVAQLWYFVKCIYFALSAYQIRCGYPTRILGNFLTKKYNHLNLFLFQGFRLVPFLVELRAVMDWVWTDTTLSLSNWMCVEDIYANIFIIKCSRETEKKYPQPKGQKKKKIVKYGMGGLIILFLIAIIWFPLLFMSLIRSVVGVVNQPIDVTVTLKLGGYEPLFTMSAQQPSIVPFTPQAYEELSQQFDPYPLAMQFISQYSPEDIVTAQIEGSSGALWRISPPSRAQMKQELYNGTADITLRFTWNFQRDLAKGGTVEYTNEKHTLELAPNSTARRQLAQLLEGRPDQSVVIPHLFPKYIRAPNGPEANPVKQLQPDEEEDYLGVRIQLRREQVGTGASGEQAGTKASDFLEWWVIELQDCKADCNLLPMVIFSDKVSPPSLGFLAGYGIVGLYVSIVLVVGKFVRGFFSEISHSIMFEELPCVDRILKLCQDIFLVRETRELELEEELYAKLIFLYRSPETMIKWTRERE
# T1 sequence (Q92508 whole entry): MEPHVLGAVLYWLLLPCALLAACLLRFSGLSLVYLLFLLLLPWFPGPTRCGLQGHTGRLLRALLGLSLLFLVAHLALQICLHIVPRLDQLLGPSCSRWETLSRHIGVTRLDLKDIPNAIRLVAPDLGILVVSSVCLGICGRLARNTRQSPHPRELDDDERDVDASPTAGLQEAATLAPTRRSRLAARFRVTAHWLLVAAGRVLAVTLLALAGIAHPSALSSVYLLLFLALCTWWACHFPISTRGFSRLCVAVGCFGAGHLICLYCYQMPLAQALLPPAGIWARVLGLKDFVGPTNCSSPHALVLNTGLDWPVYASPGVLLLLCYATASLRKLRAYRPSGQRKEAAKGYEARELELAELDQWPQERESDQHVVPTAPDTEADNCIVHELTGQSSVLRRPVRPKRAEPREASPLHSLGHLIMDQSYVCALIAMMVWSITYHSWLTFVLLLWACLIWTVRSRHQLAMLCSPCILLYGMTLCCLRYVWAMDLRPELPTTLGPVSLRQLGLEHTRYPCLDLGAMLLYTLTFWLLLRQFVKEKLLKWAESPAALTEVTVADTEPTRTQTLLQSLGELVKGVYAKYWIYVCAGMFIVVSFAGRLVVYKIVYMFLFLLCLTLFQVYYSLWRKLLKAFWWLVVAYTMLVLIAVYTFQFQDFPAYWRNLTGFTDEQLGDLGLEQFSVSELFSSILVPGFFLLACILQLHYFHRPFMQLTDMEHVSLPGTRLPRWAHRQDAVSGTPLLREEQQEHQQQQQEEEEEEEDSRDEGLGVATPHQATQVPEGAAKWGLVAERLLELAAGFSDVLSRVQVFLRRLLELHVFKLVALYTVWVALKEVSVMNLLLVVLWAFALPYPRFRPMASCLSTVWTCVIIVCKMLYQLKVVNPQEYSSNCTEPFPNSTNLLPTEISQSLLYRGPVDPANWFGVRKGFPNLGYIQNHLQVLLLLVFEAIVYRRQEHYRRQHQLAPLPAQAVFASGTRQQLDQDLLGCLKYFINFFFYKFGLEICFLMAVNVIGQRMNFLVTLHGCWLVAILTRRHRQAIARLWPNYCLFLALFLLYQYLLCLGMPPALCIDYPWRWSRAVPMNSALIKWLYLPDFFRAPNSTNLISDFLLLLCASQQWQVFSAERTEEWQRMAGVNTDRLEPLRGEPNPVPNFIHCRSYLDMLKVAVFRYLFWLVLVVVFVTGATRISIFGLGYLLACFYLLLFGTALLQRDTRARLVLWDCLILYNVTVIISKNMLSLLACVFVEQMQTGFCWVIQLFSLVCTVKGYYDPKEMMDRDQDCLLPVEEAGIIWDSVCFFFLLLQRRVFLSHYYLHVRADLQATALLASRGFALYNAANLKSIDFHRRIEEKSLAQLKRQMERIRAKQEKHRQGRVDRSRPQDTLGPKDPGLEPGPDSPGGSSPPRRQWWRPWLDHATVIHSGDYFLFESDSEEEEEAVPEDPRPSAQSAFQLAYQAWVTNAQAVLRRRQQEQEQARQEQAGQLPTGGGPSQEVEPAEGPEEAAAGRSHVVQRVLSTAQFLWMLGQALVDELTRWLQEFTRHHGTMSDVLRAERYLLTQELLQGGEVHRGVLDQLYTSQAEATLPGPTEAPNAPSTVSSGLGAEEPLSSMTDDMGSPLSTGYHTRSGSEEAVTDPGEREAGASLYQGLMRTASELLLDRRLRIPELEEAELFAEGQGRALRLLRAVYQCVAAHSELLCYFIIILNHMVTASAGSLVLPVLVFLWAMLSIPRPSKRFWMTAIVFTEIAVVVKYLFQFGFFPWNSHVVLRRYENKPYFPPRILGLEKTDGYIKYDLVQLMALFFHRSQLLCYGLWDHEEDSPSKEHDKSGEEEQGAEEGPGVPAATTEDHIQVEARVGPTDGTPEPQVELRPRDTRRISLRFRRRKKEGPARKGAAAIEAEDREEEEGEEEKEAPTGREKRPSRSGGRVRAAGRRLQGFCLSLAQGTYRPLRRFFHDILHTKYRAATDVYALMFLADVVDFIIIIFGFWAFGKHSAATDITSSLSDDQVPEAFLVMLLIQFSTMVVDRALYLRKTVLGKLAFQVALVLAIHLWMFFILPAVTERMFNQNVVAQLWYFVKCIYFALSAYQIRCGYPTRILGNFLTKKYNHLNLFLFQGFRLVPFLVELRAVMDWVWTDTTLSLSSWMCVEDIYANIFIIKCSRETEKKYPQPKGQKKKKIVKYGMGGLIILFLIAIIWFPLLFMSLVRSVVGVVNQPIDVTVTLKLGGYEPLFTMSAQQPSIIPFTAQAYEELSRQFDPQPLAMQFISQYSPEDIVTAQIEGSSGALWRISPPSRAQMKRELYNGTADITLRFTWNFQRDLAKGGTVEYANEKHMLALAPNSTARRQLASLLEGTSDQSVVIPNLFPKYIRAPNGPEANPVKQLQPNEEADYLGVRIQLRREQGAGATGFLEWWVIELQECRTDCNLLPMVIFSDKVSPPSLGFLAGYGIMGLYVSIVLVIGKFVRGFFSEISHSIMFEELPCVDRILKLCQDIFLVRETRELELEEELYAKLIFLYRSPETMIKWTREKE
# Chain of hPIEZO1 (Homo sapiens, UniProt Q92508, L322P) (Q92508 whole entry L322P): as the sequence (Q92508 whole entry) above, with L322P counted along it
# Chain of mPIEZO1 (Mus musculus, UniProt E2JF22, L329P) (E2JF22 whole entry L329P): as the sequence (E2JF22 whole entry) above, with L329P counted along it
Structure (SMILES),Fura-2 ratio change at 1 mM (hPIEZO1 [1]),EC50 (mPIEZO1 [2]) [µM],EC50 (hPIEZO1 [3]) [µM],EC50 (hPIEZO1 [4]) [µM],EC50 (mPIEZO1 [5]) [µM]
Cc1oc(-c2ccccc2)cc1C(=O)O [Jedi1],comparable Fura-2 signal increase in response to the application of either Jedi1 or Yoda1,–,–,–,–
Clc1cccc(Cl)c1CSc1nnc(-c2cnccn2)s1 [Yoda1],–,1.3,3.1,9.1,4.3
